Test results: patent US12083105B2, “Compositions and methods for treating adult-onset neuronal ceroid lipofuscinosis (Kufs disease)” (CORNELL UNIVERSITY, priority 2020, dated 2024)

How the values were obtained:
Format in all cases: cell-based, human
ANCL iNs = experiment: Lipofuscin ELISA in ANCL iNs; conditions: compared to control; for lipofuscin ELISA signal: ANCL iNs treated for 56 d (prevention), FIG. 7G; for levels of lipofuscin (ELISA): added to ANCL iNs after 56 days of lipofuscin accumulation, 0, 7, 14, 21 d of treatment, FIG. 7I
Description: ANCL patient-derived fibroblasts were treated with 200 μM of L1 or Dfx, or vehicle (0.1% DMSO=Control) for 72 h, before measuring the UV-Vis absorbance spectra of immunoprecipitated CSPα eluted by trypsinization (solid lines). Spectra were re-read after 10 min of 0.1 N HCl treatment (dashed lines). The experiments shown in FIGS. 7B-7I, were conducted using ANCL fibroblasts converted to iNs using BAM+ND1 technique. […] Quantitative immunoblotting was used to measure levels of oligomerized and fully palmitoylated CSPα as well as total SNAP-25. Oligo=oligomers; Palm=palmitoylated. […] The interaction of CSPα with SNAP-25 in ANCL iNs was measured by immunoprecipitating SNAP-25 followed by quantitative immunoblotting of co-immunoprecipitated CSPα (normalized to SNAP-25 IP). Note that mainly CSPα monomers and not oligomers were detected bound to SNAP-25. Control=control sham IP without IgG. […] Turnover of SNAP-25 was determined by cycloheximide chase, while maintaining the iron-chelators or vehicle in the medium. […] In the experiments shown in FIGS. 7E-7G, ANCL iNs treated with L1, Dfx, or vehicle for 56 d and analyzed. […] The levels of lipofuscin were determined by ELISA. In the experiments shown in FIGS. 7H-7I 56 day old untreated ANCL iNs were treated with L1, Dfx, or vehicle, and analyzed. […] Data are from FIG. 7A representative of n=4, FIG. 7B n=4, FIG. 7C n=4, FIG. 7D n=7, FIG. 7F n=4, FIG. 7G n=4, FIG. 7H n=6, FIG. 7I n=3. In FIGS. 7B-7C and FIGS. 7F-7G *P<0.05; **P<0.01; ****P<0.0001 by two-tailed Student's t-test. #P<0.05 by Mann-Whitney-Wilcoxon U test. In FIG. 7D-7C and FIGS. 7H-7I **P<0.01; ***P<0.001; ****P<0.0001 by two-way ANOVA; ##P<0.01; ###P<0.001; ####P<0.0001 by Tukey's multiple comparisons test.
iNs from each well of a 6 well dish were solubilized in 100 μl PBS with 0.1% Triton X-100 for 1 h at 4° C. Post nuclear supernatant collected by centrifugation at 1000 gav for 15 min was used for the assay. These samples were analyzed for lipofuscin content using human lipofuscin competitive ELISA (MyBiosource; MBS7217173). Following the colorimetric reaction, optical density at 450 nm was read from the standard and the sample wells using Synergy H1 Hybrid Reader (BioTek).
Effect of iron chelators on the accumulation of lipofuscin was monitored by ELISA for lipofuscin or based on lipofuscin autofluorescence. […] Effect of iron chelators on the accumulation of ATP5G was also studied.
As a treatment paradigm, iron-chelators were also added post-accumulation of lipofuscin. L1 and Dfx were added to ANCL iNs after 56 days of lipofuscin accumulation, and levels of ATP5G and lipofuscin were compared over the subsequent 3 weeks.

SNAP-25 = SNAP-25 turnover in ANCL iNs by cycloheximide chase; conditions: 72 h pretreatment, cycloheximide chase in presence of chelator, FIG. 7D
Description: (§1) ANCL patient-derived fibroblasts were treated with 200 μM of L1 or Dfx, or vehicle (0.1% DMSO=Control) for 72 h, before measuring the UV-Vis absorbance spectra of immunoprecipitated CSPα eluted by trypsinization (solid lines). Spectra were re-read after 10 min of 0.1 N HCl treatment (dashed lines). The experiments shown in FIGS. 7B-7I, were conducted using ANCL fibroblasts converted to iNs using BAM+ND1 technique. […] Quantitative immunoblotting was used to measure levels of oligomerized and fully palmitoylated CSPα as well as total SNAP-25. Oligo=oligomers; Palm=palmitoylated. […] The interaction of CSPα with SNAP-25 in ANCL iNs was measured by immunoprecipitating SNAP-25 followed by quantitative immunoblotting of co-immunoprecipitated CSPα (normalized to SNAP-25 IP). Note that mainly CSPα monomers and not oligomers were detected bound to SNAP-25. Control=control sham IP without IgG. […] Turnover of SNAP-25 was determined by cycloheximide chase, while maintaining the iron-chelators or vehicle in the medium. […] In the experiments shown in FIGS. 7E-7G, ANCL iNs treated with L1, Dfx, or vehicle for 56 d and analyzed. […] The levels of lipofuscin were determined by ELISA. In the experiments shown in FIGS. 7H-7I 56 day old untreated ANCL iNs were treated with L1, Dfx, or vehicle, and analyzed. […]

[1] = tested on: Fe—S clusters bound to immunoprecipitated CSPα; experiment: UV-Vis absorbance spectra of CSPα immunoprecipitated from ANCL patient fibroblasts; conditions: 200 μM, 72 h, compared to control (0.1% DMSO), FIG. 7A
Description: as §1

| Compound | lipofuscin ELISA signal (ANCL iNs) | levels of lipofuscin (ELISA) (ANCL iNs) | turnover of SNAP-25 (SNAP-25) | UV-Vis signature of Fe—S clusters bound to immunoprecipitated CSPα [1] |
| --- | --- | --- | --- | --- |
| CC(=O)N(O)CCCCCNC(=O)CCC(=O)N(O)CCCCCNC(=O)CCC(=O)N(O)CCCCCN [Dfx, N′-[5-(Acetyl-hydroxy-amino)pentyl]-N-[5-[3-(5-aminopentyl-hydroxy-carbamoyl)propanoylamino]pentyl]-N-hydroxy-butane diamide] | significant reduction | reduced to the levels observed in the prevention experiments | decreased turnover | reduced |
| Cc1c(O)c(=O)ccn1C [L1, 3-hydroxy-1,2-dimethyl-4(1H)-pyridone] | significant reduction | reduced to the levels observed in the prevention experiments | decreased turnover | reduced |
